The target of one test is T1, Kv1.3 potassium channel (Homo sapiens, UniProt P22001).
T1 construct: expressed in transfected cells
The test can be described thus: Kv1.3 potassium channel blocker activity, automated whole-cell patch clamp (Patchliner). Format: cell-based. The essentials:
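IC50 came from Hill-equation fits of peak and AUC currents from the final pulse at each concentration, normalized to compound-free control. Compounds applied consecutively at 30 nM to 100 μM (up to 0.3% DMSO) to Kv1.3-expressing CHO-K1 cells, P/4 leak subtraction. Pulses were +40 mV, 100 ms, from −90 mV holding, at 0.1 Hz on Patchliner.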
In general terms: The patch-clamp technique gives a direct electrical read-out from membranes.

A further test concerns the target T2, hERG channel (Homo sapiens, UniProt Q12809).
T2 construct: expressed in transfected cells
The test can be described thus: hERG electrophysiology, automated whole-cell patch clamp (Patchliner). The class given is cell-based. How it is done:
This assay is used to evaluate the disclosed compounds' inhibition activities against the hERG channel.
CHO-K1 cells stably expressing hERG were grown in Ham's F-12 Medium with glutamine containing 10% heat-inactivated FBS, 1% penicillin/streptomycin, hygromycin (100 μg/ml) and G418 (100 μg/ml). Cells were grown in culture flasks at 37° C. in a 5% CO2-humidified incubator.
The cells were bathed in an extracellular solution containing 140 mM NaCl, 4 mM KCl, 2 mM CaCl2), 1 mM MgCl2, 5 mM glucose, and 10 mM HEPES; pH adjusted to 7.4 with NaOH; 295-305 mOsm. The internal solution contained 50 mM KCl, 10 mM NaCl, 60 mM KF, 20 mM EGTA, and 10 mM HEPES; pH adjusted to 7.2 with KOH; 285 mOsm. All compounds were dissolved in DMSO at 30 mM. Compound stock solutions were freshly diluted with external solution to concentrations of 30 nM, 100 nM, 300 nM, 1 μM, 3 μM, 10 μM, 30 μM and 100 μM. The highest content of DMSO (0.3%) was present in 100 μM.
The voltage protocol (see Table 3) was designed to simulate voltage changes during a cardiac action potential with a 300 ms depolarization to +20 mV (analogous to the plateau phase of the cardiac action potential), a repolarization for 300 ms to −50 mV (inducing a tail current) and a final step to the holding potential of −80 mV. The pulse frequency was 0.3 Hz. Control (compound-free) and compound pulse trains for each compound concentration applied contained 70 pulses.
Whole-cell current recordings and compound application were enabled by means of an automated patch clamp platform Patchliner (Nanion). EPC 10 patch clamp amplifier (HEKA) along with Patchmaster software (HEKA Elektronik Dr. Schulze GmbH) was used for data acquisition. Data were sampled at 10 kHz without filtering. Increasing compound concentrations were applied consecutively to the same cell without washouts in between.
AUC and PEAK values were obtained with Patchmaster (HEKA Elektronik Dr. Schulze GmbH). To determine IC50 the last single pulse in the pulse train corresponding to a given compound concentration was used. Obtained AUC and PEAK values in the presence of compound were normalized to control values in the absence of compound. Using Origin (OridinLab), IC50 was derived from data fit to Hill equation: Icompound/Icontrol=(100-A)/(1+([compound]/IC50)nH)+A, where IC50 is the concentration at which current inhibition is half-maximal, [compound] is the applied compound concentration, A is the fraction of current that is not blocked and nH is the Hill coefficient.
In general terms: Block of hERG is tested as a sign of cardiac risk.

The mark [1] stands for this setting: CHO-K1 cells stably expressing Kv1.3, 100 ms pulses from -90 mV to +40 mV, 0.1 Hz.
[2] abbreviates: CHO-K1 cells stably expressing hERG, +20 mV 300 ms, -50 mV 300 ms tail current, 0.3 Hz.
The mark [3] stands for this setting: Kv1.3 potassium channel, whole-cell patch clamp.
Where [4] appears, read: hERG channel, whole-cell patch clamp.

pIC50: −log10 of the molar value.

T1 sequence (P22001 whole entry): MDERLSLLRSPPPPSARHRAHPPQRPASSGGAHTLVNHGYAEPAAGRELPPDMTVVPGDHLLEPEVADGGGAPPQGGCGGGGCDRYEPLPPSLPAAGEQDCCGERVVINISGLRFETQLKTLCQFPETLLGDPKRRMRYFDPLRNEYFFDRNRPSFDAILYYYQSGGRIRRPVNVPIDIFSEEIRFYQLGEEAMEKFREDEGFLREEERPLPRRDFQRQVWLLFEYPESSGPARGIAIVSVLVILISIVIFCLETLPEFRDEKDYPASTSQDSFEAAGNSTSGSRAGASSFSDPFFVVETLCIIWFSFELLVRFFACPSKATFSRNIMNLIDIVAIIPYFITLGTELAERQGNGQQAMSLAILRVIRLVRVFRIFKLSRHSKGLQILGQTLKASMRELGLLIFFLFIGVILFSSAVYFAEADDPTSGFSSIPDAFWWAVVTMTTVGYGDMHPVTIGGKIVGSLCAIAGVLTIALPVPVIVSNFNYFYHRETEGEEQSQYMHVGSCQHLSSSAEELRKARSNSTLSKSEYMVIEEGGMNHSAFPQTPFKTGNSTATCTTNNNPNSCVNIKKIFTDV
T2 sequence (Q12809 whole entry): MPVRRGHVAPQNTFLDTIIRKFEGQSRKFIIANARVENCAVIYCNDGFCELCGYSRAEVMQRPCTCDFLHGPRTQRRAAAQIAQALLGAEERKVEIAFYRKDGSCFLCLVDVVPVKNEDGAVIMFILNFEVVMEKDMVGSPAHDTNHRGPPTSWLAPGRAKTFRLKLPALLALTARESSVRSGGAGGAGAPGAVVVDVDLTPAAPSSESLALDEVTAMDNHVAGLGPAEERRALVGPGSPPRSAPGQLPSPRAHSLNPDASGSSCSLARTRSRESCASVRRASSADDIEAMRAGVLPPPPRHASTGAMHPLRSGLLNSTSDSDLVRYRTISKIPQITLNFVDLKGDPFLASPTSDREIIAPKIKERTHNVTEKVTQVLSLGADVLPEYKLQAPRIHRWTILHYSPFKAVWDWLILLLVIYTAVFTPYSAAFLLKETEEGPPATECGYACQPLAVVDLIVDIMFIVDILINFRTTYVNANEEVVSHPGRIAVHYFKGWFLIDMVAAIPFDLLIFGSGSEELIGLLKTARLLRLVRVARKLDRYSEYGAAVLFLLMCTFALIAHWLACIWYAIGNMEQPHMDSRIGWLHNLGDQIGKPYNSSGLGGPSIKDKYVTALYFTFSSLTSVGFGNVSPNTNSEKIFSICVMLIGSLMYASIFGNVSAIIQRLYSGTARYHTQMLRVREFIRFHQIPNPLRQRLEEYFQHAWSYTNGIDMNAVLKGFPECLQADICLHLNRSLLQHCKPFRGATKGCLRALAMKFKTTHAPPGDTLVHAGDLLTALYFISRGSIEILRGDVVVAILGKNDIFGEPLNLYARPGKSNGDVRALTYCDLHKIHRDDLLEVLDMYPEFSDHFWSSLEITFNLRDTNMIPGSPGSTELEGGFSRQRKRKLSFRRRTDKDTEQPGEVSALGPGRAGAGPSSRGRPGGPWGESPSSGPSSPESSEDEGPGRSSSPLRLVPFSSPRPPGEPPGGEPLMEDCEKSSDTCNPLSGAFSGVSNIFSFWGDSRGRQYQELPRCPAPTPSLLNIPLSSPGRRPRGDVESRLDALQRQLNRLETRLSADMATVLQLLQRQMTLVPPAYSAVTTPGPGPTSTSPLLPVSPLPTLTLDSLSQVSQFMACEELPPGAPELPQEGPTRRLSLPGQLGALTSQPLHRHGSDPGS

One may read the pIC50 as −log10 of the IC50, conventionally taken in molar units. A low value points to a large IC50. Take `CNC(=O)N1CC(=O)N2C[C@@H](c3c(O)ccc(Cl)c3Cl)C[C@H]2C1` [Compound 37, (7R,8aS)-7-(2,3-dichloro-6-hydroxyphenyl)-N-methyl-4-oxo-hexahydropyrrolo[1,2-a]pyrazine-2-carboxamide]: the values for the pIC50 against Kv1.3 potassium channel (setting [1]) and on hERG channel (setting [2]) were above 6.00 and below 4.52, respectively.
Take `NC[C@@H]1OC(=O)N2C[C@@H](c3c(O)ccc(Cl)c3Cl)C[C@@H]12` (single isomer, unassigned) [Compound 272]: the pIC50 on Kv1.3 potassium channel (setting [3]) was above 6.00; on hERG channel (setting [4]), above 4.52.
The corresponding values for `CC1(O)CN(C(=O)N2CC(=O)N3C[C@@H](c4c(O)ccc(Cl)c4Cl)C[C@H]3C2)C1` [Compound 100, (7R,8aS)-7-(2,3-dichloro-6-hydroxyphenyl)-2-(3-hydroxy-3-methylazetidine-1-carbonyl)-hexahydropyrro[1,2-a]pyrazine-4-one] are above 6.00 and below 4.52.
Take `CCC[C@H](CO)C(=O)N1CC(=O)N2C[C@@H](c3c(O)ccc(Cl)c3Cl)C[C@H]2C1` [Compound 77, (7R,8aS)-7-(2,3-dichloro-6-hydroxyphenyl)-2-[(2R)-2-(hydroxymethyl)pentanoyl]-hexahydropyrrolo [1,2-a]pyrazin-4-one]: the values for the pIC50 against Kv1.3 potassium channel (setting [3]) and against hERG channel (setting [4]) were above 6.00 and below 4.52, respectively.
As to `O=C1CC(N2CCOCC2)C[C@@H]2C[C@H](c3c(O)ccc(Cl)c3Cl)CN12` (stereo partly drawn) [Compound 195, (2R,8aS)-2-(2,3-dichloro-6-hydroxyphenyl)-7-(morpholin-4-yl)-hexahydro-1-indolizin-5-one], the pIC50 on Kv1.3 potassium channel (setting [3]) was above 6.00; at hERG channel (setting [4]), above 4.52.
Regarding `CN(C)CC(=O)N1CC(=O)N2CC[C@@H](c3c(O)ccc(Cl)c3Cl)C[C@H]2C1` [Compound 40, (8R,9aS)-8-(2,3-dichloro-6-hydroxyphenyl)-2-[2-(dimethylamino)acetyl]-hexahydro-1H-pyrido[1,2-a]pyrazin-4-one], the pIC50 against Kv1.3 potassium channel (setting [1]) was above 6.00; at hERG channel (setting [2]) it was above 4.52.
On to `O=C1CN(CCN2CCNCC2)C[C@@H]2C[C@H](c3c(O)ccc(Cl)c3Cl)CN12` [Compound 120, (7R,8aS)-7-(2,3-dichloro-6-hydroxyphenyl)-2-[2-(piperazin-1-yl)ethyl]-hexahydropyrrolo [1,2-a]pyrazin-4-one], for which the negative logarithm of the IC50 (pIC50) is above 6.00 at Kv1.3 potassium channel (setting [3]) and below 4.52 against hERG channel (setting [4]).
For the compound `O=C(C1CNC1)N1CC(=O)N2CC[C@@H](c3c(O)ccc(Cl)c3Cl)C[C@H]2C1` (relative stereo) [Compound 32, (8S,9aR)-rel-2-(azetidine-3-carbonyl)-8-(2,3-dichloro-6-hydroxyphenyl)-hexahydro-1H-pyrido[1,2-a]pyrazin-4-one], the negative logarithm of the IC50 (pIC50) was above 6.00 on Kv1.3 potassium channel (setting [1]) and below 4.52 against hERG channel (setting [2]).
Taken in the same sequence, the figures for `O=C1[C@@H](CO)OC[C@@H]2C[C@H](c3c(O)ccc(Cl)c3Cl)CN12` [Compound 50, (3R,7R,8aS)-7-(2,3-dichloro-6-hydroxyphenyl)-3-(hydroxymethyl)-hexahydropyrrolo[2,1-c][1,4]oxazin-4-one] were above 6.00 and below 4.52.
Turning to `NC[C@@]1(O)CC(=O)N2C[C@@H](c3c(O)ccc(Cl)c3Cl)C[C@H]2C1` (single isomer, unassigned) [Compound 218], the values for the pIC50 at Kv1.3 potassium channel (setting [3]) and against hERG channel (setting [4]) were above 6.00 and below 4.52, respectively.
The corresponding values for `CC(=O)NCC1OC(=O)N2C[C@@H](c3c(O)ccc(Cl)c3Cl)C[C@@H]12` (stereo partly drawn) [Compound 276, N-[[(6R,7aS)-6-(2,3-dichloro-6-hydroxyphenyl)-3-oxo-tetrahydro-1H-pyrrolo[1,2-c][1,3]oxazol-1-yl]methyl]acetamide] are above 6.00 and below 4.52.
The corresponding values for `C[C@H]1CC(=O)N2C[C@@H](c3c(O)ccc(Cl)c3Cl)C[C@H]2CN1C(=O)CO` [Compound 94, (3S,8R,9aS)-8-(2,3-dichloro-6-hydroxyphenyl)-2-(2-hydroxyacetyl)-3-methyl-hexahydro-1H-pyrrolo[1,2-a][1,4]diazepin-5-one] are above 6.00 and below 4.52.
With `O=C1CNC[C@@H]2CC(c3c(O)ccc(Cl)c3Cl)CN12` (stereo partly drawn) [Compound 33, (8aS)-7-(2,3-dichloro-6-hydroxyphenyl)-hexahydro-1H-pyrrolo[1,2-a]pyrazin-4-one trifluoroacetic acid], the values for the pIC50 against Kv1.3 potassium channel (setting [1]) and against hERG channel (setting [2]) were above 6.00 and above 4.52, respectively.
`O=C1C[C@H](N2CC(O)C2)C[C@@H]2C[C@H](c3c(O)ccc(Cl)c3Cl)CN12` (single isomer, unassigned) [Compound 197]: the negative-log IC50 (pIC50) against Kv1.3 potassium channel (setting [3]) is above 6.00; against hERG channel (setting [4]) it was below 4.52.
Taken in the same sequence, the figures for `O=C1CN(C[C@H]2COCCN2)C[C@@H]2C[C@H](c3c(O)ccc(Cl)c3Cl)CN12` [Compound 145, (7R,8aS)-7-(2,3-dichloro-6-hydroxyphenyl)-2-[(3S)-morpholin-3-ylmethyl]-hexahydropyrrolo [1,2-a]pyrazin-4-one] were above 6.00 and above 4.52.
`O=C1CN([C@H]2C[C@H](O)C2)C[C@@H]2C[C@H](c3c(O)ccc(Cl)c3Cl)CN12` (relative stereo) [Compound 125, (7R,8aS)-7-(2,3-dichloro-6-hydroxyphenyl)-2-[(1r,3S)-rel-3-hydroxycyclobutyl] hexahydropyrrolo [1,2-a]pyrazin-4-one]: the results for the negative logarithm of the IC50 (pIC50) against Kv1.3 potassium channel (setting [3]) and at hERG channel (setting [4]) were above 6.00 and below 4.52, respectively.
Taken in the same sequence, the figures for `COC[C@@H](CO)N1CC(=O)N2C[C@@H](c3c(O)ccc(Cl)c3Cl)C[C@H]2C1` (single isomer, unassigned; isomer 2) [Compound 119] were above 6.00 and below 4.52.
As to `O=C(CCO)N1CC(=O)N2CC[C@@H](c3c(O)ccc(Cl)c3Cl)C[C@H]2C1` [Compound 11, (8R,9aS)-8-(2,3-dichloro-6-hydroxyphenyl)-2-(3-hydroxypropanoyl)octahydro-4H-pyrido[1,2-a]pyrazin-4-one], the figures for the pIC50 against Kv1.3 potassium channel (setting [1]) and at hERG channel (setting [2]) were above 6.00 and below 4.52, respectively.
The corresponding values for `C[C@@H](CO)C(=O)N1CC(=O)N2CC[C@@H](c3c(O)ccc(Cl)c3Cl)C[C@H]2C1` [Compound 45, (8R,9aS)-8-(2,3-dichloro-6-hydroxyphenyl)-2-((S)-3-hydroxy-2-methylpropanoyl)octahydro-4H-pyrido[1,2-a]pyrazin-4-one] are above 6.00 and below 4.52.
In the case of `O=C1OC[C@@H]2C[C@H](c3c(O)ccc(Cl)c3Cl)CN12` [Compound 251, (6R,7aS)-6-(2,3-dichloro-6-hydroxyphenyl)-tetrahydro-1H-pyrrolo[1,2-c][1,3]oxazol-3-one], the pIC50 was above 6.00 at Kv1.3 potassium channel (setting [3]) and above 4.52 against hERG channel (setting [4]).
The corresponding values for `CN(C)CC1CC(=O)N2C[C@@H](c3c(O)ccc(Cl)c3Cl)C[C@H]2C1` (stereo partly drawn) [Compound 240, (2R,8aR)-2-(2,3-dichloro-6-hydroxyphenyl)-7-[(dimethylamino)methyl]-hexahydro-1H-indolizin-5-one] are above 6.00 and above 5.00.
The corresponding values for `NCC1OC[C@@H]2C[C@H](c3c(O)ccc(Cl)c3Cl)CCN2C1=O` (stereo partly drawn) [Compound 180, (8R,9aS)-3-(aminomethyl)-8-(2,3-dichloro-6-hydroxyphenyl)-hexahydro-1H-pyrido[2,1-c][1,4]oxazin-4-one] are above 6.00 and above 4.52.
The corresponding values for `O=C1C[C@H](N2CC[C@H](O)C2)C[C@@H]2C[C@H](c3c(O)ccc(Cl)c3Cl)CN12` (single isomer, unassigned) [Compound 193] are above 6.00 and below 4.52.
As to `C[C@H]1[C@@H]2C[C@H](c3c(O)ccc(Cl)c3Cl)CN2C(=O)CN1C(=O)CO` (single isomer, unassigned; isomer 2) [Compound 88], the pIC50 at Kv1.3 potassium channel (setting [3]) is above 6.00; on hERG channel (setting [4]) it was below 4.52.

For the origin of these results see patent US20230049231A1 (priority 2019, published 2023).
